# US20110245351A1, “MEDICAL ADHESIVE FOR SURGERY” (BAYER MATERIALSCIENCE AG, priority 2008, published 2011)
# Experiment: Processing / curing time of the adhesive from prepolymer A-1 and secondary diamine
# Assay type: physicochemical
# Conditions: for Processing time: diamine as curing agent for prepolymer A-1
# Experimental: 1 g of the prepolymer A-1 were stirred well in a beaker with an equivalent quantity of dimethyl 2,2′-(pentane-1,5-diylbis(azandiyl))bis(4-methylpentanoate). Directly after this, the reaction mixture was applied thinly onto the tissue to be glued. […] After 2 mins, the surface of the adhesive was no longer tacky.
# [1] = 1 g prepolymer A-1 with equivalent quantity of diamine, applied thinly onto tissue
Compound,Processing time [min],Curing to a transparent film [1] [min],Time after which surface of the adhesive was no longer tacky [1] [min]
CCC(C)C(NCCCNC(C(=O)OC)C(C)CC)C(=O)OC (stereo not drawn),3,,
CCOC(=O)C(C)NCCCCNC(C)C(=O)OCC (stereo not drawn),0.7,,
CCOC(=O)C(C)NCCCCCNC(C)C(=O)OCC (stereo not drawn),0.55,,
"COC(=O)C(CC(C)C)NCCCCCNC(CC(C)C)C(=O)OC (stereo not drawn) [Example 2, Dimethyl 2,2′-(pentan-1,5-diylbis(azandiyl))bis(4-methylpentanoate)]",,≤ 1,2
COC(=O)C(CC(C)C)NCCCCCNC(CC(C)C)C(=O)OC (stereo not drawn) [drawing 17],4,,
COC(=O)C(Cc1ccccc1)NCCCCCCNC(Cc1ccccc1)C(=O)OC (stereo not drawn),4,,
COC(=O)C(NCCCNC(C(=O)OC)C(C)C)C(C)C (stereo not drawn),4,,
COC(=O)C(Cc1ccccc1)NCCCNC(Cc1ccccc1)C(=O)OC (stereo not drawn),4,,
